Experimental findings from ChEMBL document CHEMBL3992556, “5-Ethynylarylnaphthalimides as antitumor agents: Synthesis and biological evaluation” (Bioorg Med Chem, 2017) are described below.

Calls of active or inactive are those of the source. The calls are words filed in the database; no cut-off is given here.

DNA topoisomerase 2-alpha (Homo sapiens), sequence (P11388 whole entry): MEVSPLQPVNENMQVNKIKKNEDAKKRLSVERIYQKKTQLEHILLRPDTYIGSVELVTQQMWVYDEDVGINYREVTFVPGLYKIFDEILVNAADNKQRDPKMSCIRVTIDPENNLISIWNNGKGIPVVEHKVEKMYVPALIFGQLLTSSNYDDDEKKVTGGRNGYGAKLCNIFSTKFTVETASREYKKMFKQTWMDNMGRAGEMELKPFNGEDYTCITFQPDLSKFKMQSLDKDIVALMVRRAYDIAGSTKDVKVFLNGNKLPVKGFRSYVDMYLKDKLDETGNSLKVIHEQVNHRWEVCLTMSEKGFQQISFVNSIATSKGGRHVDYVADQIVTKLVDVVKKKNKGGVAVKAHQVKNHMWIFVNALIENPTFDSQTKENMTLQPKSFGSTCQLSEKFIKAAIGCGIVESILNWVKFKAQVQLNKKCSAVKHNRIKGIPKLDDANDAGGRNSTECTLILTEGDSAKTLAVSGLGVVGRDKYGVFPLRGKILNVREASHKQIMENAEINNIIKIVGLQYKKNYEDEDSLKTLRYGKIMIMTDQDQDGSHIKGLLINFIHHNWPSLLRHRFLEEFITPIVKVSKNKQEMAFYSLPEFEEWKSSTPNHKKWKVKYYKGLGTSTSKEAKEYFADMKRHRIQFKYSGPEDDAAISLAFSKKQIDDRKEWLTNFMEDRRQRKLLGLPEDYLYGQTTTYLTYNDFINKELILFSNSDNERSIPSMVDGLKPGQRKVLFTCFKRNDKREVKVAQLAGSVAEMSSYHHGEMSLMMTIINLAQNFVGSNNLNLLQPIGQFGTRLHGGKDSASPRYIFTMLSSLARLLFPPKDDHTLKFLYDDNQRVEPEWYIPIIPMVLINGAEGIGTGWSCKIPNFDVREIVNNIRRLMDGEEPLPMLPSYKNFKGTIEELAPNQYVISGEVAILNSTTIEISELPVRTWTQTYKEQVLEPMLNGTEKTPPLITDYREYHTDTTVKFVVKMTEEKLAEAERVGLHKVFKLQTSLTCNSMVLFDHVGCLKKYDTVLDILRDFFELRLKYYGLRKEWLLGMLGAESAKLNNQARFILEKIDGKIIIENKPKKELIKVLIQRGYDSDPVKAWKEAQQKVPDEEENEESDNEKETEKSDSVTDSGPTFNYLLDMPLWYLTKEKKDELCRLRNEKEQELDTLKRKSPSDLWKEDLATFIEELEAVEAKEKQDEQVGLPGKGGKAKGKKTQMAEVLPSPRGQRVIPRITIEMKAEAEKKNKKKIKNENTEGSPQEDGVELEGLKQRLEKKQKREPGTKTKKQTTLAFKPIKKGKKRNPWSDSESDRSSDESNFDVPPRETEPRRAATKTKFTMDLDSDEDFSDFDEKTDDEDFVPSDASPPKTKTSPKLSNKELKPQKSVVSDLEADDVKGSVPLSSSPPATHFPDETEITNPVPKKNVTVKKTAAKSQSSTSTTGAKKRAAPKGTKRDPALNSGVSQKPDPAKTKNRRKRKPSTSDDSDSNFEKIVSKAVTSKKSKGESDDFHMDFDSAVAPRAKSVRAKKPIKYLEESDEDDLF

The test system of the first assay is SK-BR-3. Nature of the assay: Antiproliferative activity against human SK-BR-3 cells after 48 hrs by MTT assay. It is filed as functional, cell-based. Conditions: SK-BR-3, 48 h.
As for `CN(C)CCN1C(=O)c2cccc3cc(C#Cc4ccsc4)cc(c23)C1=O`, the IC50 is over 10 µM.

As for `CN(C)CCN1C(=O)c2cccc3cc(C#Cc4cccc([N+](=O)[O-])c4)cc(c23)C1=O`, the IC50 is over 10 µM.

`CN(C)CCN1C(=O)c2cccc3cc(C#Cc4ccccc4)cc(c23)C1=O`: half-maximal inhibition (IC50) was put at 4.6 µM.

As for `CN(C)CCN1C(=O)c2cccc3cc(C#Cc4cccc(O)c4)cc(c23)C1=O`, the IC50 was over 30 µM.

In the case of `COc1cccc(C#Cc2cc3c4c(cccc4c2)C(=O)N(CCN(C)C)C3=O)c1`, the IC50 worked out at 2 µM.

`C#Cc1cc2c3c(cccc3c1)C(=O)N(CCN(C)C)C2=O`: the IC50 is over 10 µM.

`CN(C)CCN1C(=O)c2cccc3cc(C#Cc4cccc(C(F)(F)F)c4)cc(c23)C1=O` showed an IC50 of 0.1 µM.

Consider `CN(C)CCN1C(=O)c2cccc3cc(C#Cc4ccc(O)cc4)cc(c23)C1=O`, for which the IC50 is 2.1 µM.

With `CN(C)CCN1C(=O)c2cccc3cc(C#Cc4ccoc4)cc(c23)C1=O`, the IC50 was determined as 9.6 µM.

`COc1ccc(C#Cc2cc3c4c(cccc4c2)C(=O)N(CCN(C)C)C3=O)cc1` showed an IC50 of 2.1 µM.

The subject of a further assay is HL-60. Nature of the assay: Antiproliferative activity against human HL60 cells after 48 hrs by MTT assay. It is filed as functional, cell-based. The note with it: HL-60, 48 h.
For `CN(C)CCN1C(=O)c2cccc3cc(C#Cc4ccsc4)cc(c23)C1=O`, half-maximal inhibition (IC50) was put at 5.4 µM.

Compound `CN(C)CCN1C(=O)c2cccc3cc(C#Cc4cccc([N+](=O)[O-])c4)cc(c23)C1=O` yielded an IC50 of 13.6 µM.

Compound `CN(C)CCN1C(=O)c2cccc3cc(C#Cc4ccccc4)cc(c23)C1=O` gave an IC50 of 4.6 µM.

As for `CN(C)CCN1C(=O)c2cccc3cc(C#Cc4cccc(O)c4)cc(c23)C1=O`, the IC50 came out at 10.2 µM.

Turning to `COc1cccc(C#Cc2cc3c4c(cccc4c2)C(=O)N(CCN(C)C)C3=O)c1`, the IC50 came to 1 µM.

For `C#Cc1cc2c3c(cccc3c1)C(=O)N(CCN(C)C)C2=O`, the midpoint of inhibition, the IC50, lay at 10 µM.

The compound `CN(C)CCN1C(=O)c2cccc3cc(N)cc(c23)C1=O` [AMONAFIDE] gave an IC50 of 3.4 µM.

The compound `CN(C)CCN1C(=O)c2cccc3cc(C#Cc4cccc(C(F)(F)F)c4)cc(c23)C1=O` came in with a half-maximal inhibitory concentration (IC50) of 2.3 µM.

`CN(C)CCN1C(=O)c2cccc3cc(C#Cc4ccc(O)cc4)cc(c23)C1=O` showed an IC50 of 5.7 µM.

On to `CN(C)CCN1C(=O)c2cccc3cc(C#Cc4ccoc4)cc(c23)C1=O`, for which the IC50 was 3.5 µM.

`COc1ccc(C#Cc2cc3c4c(cccc4c2)C(=O)N(CCN(C)C)C3=O)cc1` returned a half-inhibitory concentration (IC50) of 1.1 µM.

For another assay, the system named is HEL. Nature of the assay: Antiproliferative activity against human HEL cells after 48 hrs by MTT assay. The class given is functional, cell-based.
Details: not given
For the compound `CN(C)CCN1C(=O)c2cccc3cc(C#Cc4ccsc4)cc(c23)C1=O`, it took 5 µM to reach half-maximal inhibition (IC50).

For the compound `CN(C)CCN1C(=O)c2cccc3cc(C#Cc4cccc([N+](=O)[O-])c4)cc(c23)C1=O`, the IC50 worked out at 21.7 µM.

Compound `CN(C)CCN1C(=O)c2cccc3cc(C#Cc4ccccc4)cc(c23)C1=O` had an IC50 of 1.4 µM.

`CN(C)CCN1C(=O)c2cccc3cc(C#Cc4cccc(O)c4)cc(c23)C1=O` registered an IC50 of 1.2 µM.

The compound `COc1cccc(C#Cc2cc3c4c(cccc4c2)C(=O)N(CCN(C)C)C3=O)c1` showed an IC50 of 1 µM.

`C#Cc1cc2c3c(cccc3c1)C(=O)N(CCN(C)C)C2=O`: the IC50 was 8.1 µM.

In turn, `CN(C)CCN1C(=O)c2cccc3cc(N)cc(c23)C1=O` [AMONAFIDE] yielded an IC50 of 4 µM.

Consider `CN(C)CCN1C(=O)c2cccc3cc(C#Cc4cccc(C(F)(F)F)c4)cc(c23)C1=O`, for which inhibition was half-maximal at 2.2 µM (IC50).

`CN(C)CCN1C(=O)c2cccc3cc(C#Cc4ccc(O)cc4)cc(c23)C1=O`: 13.1 µM corresponded to half-maximal inhibition (IC50).

Compound `CN(C)CCN1C(=O)c2cccc3cc(C#Cc4ccoc4)cc(c23)C1=O` returned an IC50 of 5.6 µM.

Consider `COc1ccc(C#Cc2cc3c4c(cccc4c2)C(=O)N(CCN(C)C)C3=O)cc1`, for which the IC50 is 2 µM.

The next assay has as its target DNA topoisomerase 2-alpha (Homo sapiens) (UniProt P11388). Nature of the assay: Inhibition of human topoisomerase-2 alpha assessed as reduction in relaxation of supercoiled pRYG DNA at 100 uM after 30 min by agarose gel electrophoresis.
Details: not given
As for `CN(C)CCN1C(=O)c2cccc3cc(C#Cc4ccsc4)cc(c23)C1=O`, the “Topoisomerase 2-alpha inhibition (active/not active)” value was “Active”.

For `CN(C)CCN1C(=O)c2cccc3cc(C#Cc4ccccc4)cc(c23)C1=O`, the “Topoisomerase 2-alpha inhibition (active/not active)” value was “Active”.

On to `CN(C)CCN1C(=O)c2cccc3cc(C#Cc4cccc(C(F)(F)F)c4)cc(c23)C1=O`, for which the “Topoisomerase 2-alpha inhibition (active/not active)” value was “inactive”.

Turning to `CN(C)CCN1C(=O)c2cccc3cc(C#Cc4ccoc4)cc(c23)C1=O`, the “Topoisomerase 2-alpha inhibition (active/not active)” value was “Active”.

Another assay has the same target. The assay can be described thus: Poison activity at human topoisomerase-2 alpha assessed as increase in supercoiled pRYG DNA cleavage at 100 uM after 10 min.
Details: not given
For the compound `CN(C)CCN1C(=O)c2cccc3cc(C#Cc4ccsc4)cc(c23)C1=O`, the outcome was Active.

Take `COc1cc([C@@H]2c3cc4c(cc3[C@@H](O[C@@H]3O[C@@H]5CO[C@@H](C)O[C@H]5[C@H](O)[C@H]3O)[C@H]3COC(=O)[C@H]23)OCO4)cc(OC)c1O`: the result was Active.

Another assay concerns Saccharomyces cerevisiae. Nature of the assay: Induction of DNA damage in Saccharomyces cerevisiae FM588 expressing rad52 gene assessed as growth inhibition at 5 to 100 uM after 24 hrs. It is filed as functional.
Details: not given
Regarding `CN(C)CCN1C(=O)c2cccc3cc(C#Cc4ccsc4)cc(c23)C1=O`, the result was Active.

As to `CN(C)CCN1C(=O)c2cccc3cc(C#Cc4cccc([N+](=O)[O-])c4)cc(c23)C1=O`, the result was Active.

With `CN(C)CCN1C(=O)c2cccc3cc(C#Cc4ccccc4)cc(c23)C1=O`, the outcome was Active.

On to `CN(C)CCN1C(=O)c2cccc3cc(C#Cc4cccc(O)c4)cc(c23)C1=O`, for which the result was Active.

Consider `COc1cccc(C#Cc2cc3c4c(cccc4c2)C(=O)N(CCN(C)C)C3=O)c1`, for which the result was Active.

Turning to `C#Cc1cc2c3c(cccc3c1)C(=O)N(CCN(C)C)C2=O`, the result was Active.

Turning to `CN(C)CCN1C(=O)c2cccc3cc(C#Cc4cccc(C(F)(F)F)c4)cc(c23)C1=O`, the outcome was Active.

Consider `CN(C)CCN1C(=O)c2cccc3cc(C#Cc4ccc(O)cc4)cc(c23)C1=O`, for which the outcome was inactive.

Turning to `CN(C)CCN1C(=O)c2cccc3cc(C#Cc4ccoc4)cc(c23)C1=O`, the outcome was Active.

In the case of `COc1ccc(C#Cc2cc3c4c(cccc4c2)C(=O)N(CCN(C)C)C3=O)cc1`, the outcome was Active.

Another assay has as its system Saccharomyces cerevisiae. Nature of the assay: Induction of DNA damage in Saccharomyces cerevisiae FM888 harboring rad52 deletion mutant assessed as growth inhibition at 5 to 100 uM after 24 hrs. It is filed as functional.
Details: not given
Regarding `CN(C)CCN1C(=O)c2cccc3cc(C#Cc4ccsc4)cc(c23)C1=O`, the outcome was Active.

Take `CN(C)CCN1C(=O)c2cccc3cc(C#Cc4cccc([N+](=O)[O-])c4)cc(c23)C1=O`: the outcome was Active.

`CN(C)CCN1C(=O)c2cccc3cc(C#Cc4ccccc4)cc(c23)C1=O`: the result was Active.

With `CN(C)CCN1C(=O)c2cccc3cc(C#Cc4cccc(O)c4)cc(c23)C1=O`, the result was Active.

With `COc1cccc(C#Cc2cc3c4c(cccc4c2)C(=O)N(CCN(C)C)C3=O)c1`, the result was Active.

For `C#Cc1cc2c3c(cccc3c1)C(=O)N(CCN(C)C)C2=O`, the result was Active.

Turning to `CN(C)CCN1C(=O)c2cccc3cc(C#Cc4cccc(C(F)(F)F)c4)cc(c23)C1=O`, the outcome was Active.

Take `CN(C)CCN1C(=O)c2cccc3cc(C#Cc4ccc(O)cc4)cc(c23)C1=O`: the result was inactive.

Regarding `CN(C)CCN1C(=O)c2cccc3cc(C#Cc4ccoc4)cc(c23)C1=O`, the outcome was Active.

With `COc1ccc(C#Cc2cc3c4c(cccc4c2)C(=O)N(CCN(C)C)C3=O)cc1`, the result was Active.
